Data taken from US20250206756A1, “INHIBITORS” (Pfizer Inc., priority 2023, published 2025).

Tested on: SZ95 human sebocytes
Assay: High content imaging assay to quantify lipid droplets in a human sebocyte cell line
Format: cell-based
Settings: 48 hours incubation, Bodipy neutral lipid staining, read-out: Human SZ95 Sebocyte Lipid Imaging Assay / Percent Inhibition of Lipid Droplets IC50
Description: High content imaging assay to quantify lipid droplets in a human sebocyte cell line One week prior to cell dosing, SZ95 human sebocytes were thawed and grown in a T175 tissue culture flask containing 50 mL media. Media was prepared as follows: Sebomed basal medium with stable glutamine and without phenol red (Sigma; Catalog No. F8205), 10% heat inactivated fetal bovine serum (Invitrogen; Cat. No. 10082), 5 ng/mL recombinant human epidermal growth factor (Gibco; Catalog No. PHG0311), 1 mM calcium chloride (Fisher Scientific; Catalog No. BP9742), and 1X penicillin/streptomycin (Thermo Fisher; Catalog No. 15140-122). Cells were cultured at 37° C. and the media was replaced every 48-72 hours until start of assay. Compounds were delivered as a 75 nL spot by the Echo 550 (Labcyte) into 384-well assay plates (PerkinElmer; Catalog No. 6057308) with final compound concentrations of […], 0.003, 0.001, 0.0003, and 0.0001 μM. The final DMSO concentration was 0.1%. SZ-95 cells were washed with Dulbecco's phosphate buffered saline (DPBS, Lonza; Catalog No. 17-512Q) and then detached with 0.25% Trypsin-EDTA (Gibco; Catalog No. 25200056). Growth media (25 mL) was added to the flask and the cells were further diluted to 1.33×10∧5 cells/mL. SZ-95 cells were plated at a density of 10,000 cells/well in 75 μL and incubated for 48 hours at 37° C. Using the Biomek FX (Beckman), 25 μL of media was removed and the cells were fixed by adding 18.7 μL of 16% paraformaldehyde (Electron Microscopy Sciences; Cat. No. 50980488). After a 30 minute incubation at room temperature, the plates were washed twice with 75pi DPBS. Following the second wash, all remaining DPBS was removed. Staining solution was prepared with 2 μM Bodipy (Invitrogen; Cat. No D3922, diluted 1:1000) and Hoechst (Life Technologies; Cat. No. H3570, diluted 1:2000) in DPBS. Using the Biomek FX, 30 μL of the staining solution was added to each well. The cells were incubated for 20 minutes at room temperature, then washed once with 75 μL DPBS. Finally, 30 μL of DPBS was added to each well and the plates were sealed with light blocking film. The plates were read on an Opera Phenix (PerkinElmer) for high content imaging. Nuclei were detected by Hoechst staining and lipid droplets by Bodipy, which stains neutral lipids. […] The percent (%) effect at each concentration of compound is calculated by Genedata Screener analysis program using a four-parameter logistic dose response equation and is based on and relative to the amount of lipid droplets in the positive and negative control wells contained within each assay plate to determine the 50% inhibition concentration (IC50).

SMILES: CCOc1cc(C(=O)N2CCC3(CC2)Cc2sc(C(C)(C)C)nc2[C@@H](O)C3)cc2c(C)nn(C)c12 [Example 4b]
- IC50: 7 nM

SMILES: CCOc1cc(C(=O)N2CCC3(CC2)CC(=O)c2nc(C(C)(C)CO)sc2C3)cc2c(C)nn(C)c12 [Example 3, 1′-(7-ethoxy-1,3-dimethyl-1H-Indazole-5-carbonyl)-2-(1-hydroxy-2-methylpropan-2-yl)-5H-spiro[benzo[d]thiazole-6,4′-piperidin]-4(7H)-one]
- IC50: 16 nM

SMILES: CCOc1cc(C(=O)N2CCC3(CC2)CC(=O)c2nc(C(C)(C)C)sc2C3)cc2c(C)n[nH]c12 [Example 1, 2-(tert-butyl)-1′-(7-ethoxy-3-methyl-1H-Indazole-5-carbonyl)-5H-spiro[benzo[d]thiazole-6,4′-piperidin]-4(7H)-one]
- IC50: 10 nM

SMILES: Cc1nn(C)c2c(O)cc(C(=O)N3CCC4(CC3)CC(=O)c3nc(C(C)(C)CO)sc3C4)cc12 [Example 8]
- IC50: > 0.145 nM

SMILES: CCOc1cc(C(=O)N2CCC3(CC2)Cc2sc(C(C)(C)C)nc2C(O)C3)cc2c(C)nn(C)c12 (racemic) [Example 4, rac-(R)-(2-(tert-butyl)-4-hydroxy-4,7-dihydro-5H-spiro[benzo[d]thiazole-6,4′-piperidin]-1′-yl)(7-ethoxy-1,3-dimethyl-1H-indazol-5-yl)methanone]
- IC50: 20 nM

SMILES: CCOc1cc(C(=O)N2CCC3(CC2)Cc2sc(C(C)(C)C)nc2[C@H](O)C3)cc2c(C)nn(C)c12 [Example 4a, (R)-(2-(tert-butyl)-4-hydroxy-4,7-dihydro-5H-spiro[benzo[d]thiazole-6,4′-piperidin]-1′-yl)(7-ethoxy-1,3-dimethyl-1H-indazol-5-yl)methanone]
- IC50: 122 nM

SMILES: Cc1nn(C)c2c(O)cc(C(=O)N3CCC4(CC3)CC(=O)c3nc(C(C)(C)C)sc3C4)cc12 [Example 2]
- IC50: 11 nM
